Test results: ChEMBL document CHEMBL1123046, “11C-labeled 4-isopropylantipyrine: preparation and biological evaluation as a blood flow tracer in positron emission tomography (PET)” (1985)

Columns and labels:
Rattus norvegicus [1] = species on record: Rattus norvegicus; test: Compound was evaluated for the measurement of Cerebral blood flow in nucleus ruber of Rats (hypercapnia); format: functional, Brain
Rattus norvegicus [2] = species on record: Rattus norvegicus; test: Compound was evaluated for the measurement of Cerebral blood flow in cingulate cortex of Rats (hypercapnia); format: functional, Brain
Rattus norvegicus [3] = species on record: Rattus norvegicus; test: Compound was evaluated for the measurement of Cerebral blood flow in globus pallidus of Rats (hypercapnia); format: functional
Rattus norvegicus [4] = species on record: Rattus norvegicus; test: Compound was evaluated for the measurement of Cerebral blood flow in septal nucleus of Rats (normocapnia); format: functional, Brain
Rattus norvegicus [5] = species on record: Rattus norvegicus; test: Compound was evaluated for the measurement of Cerebral blood flow in parietal cortex of Rats (normocapnia); format: functional
Rattus norvegicus [6] = species on record: Rattus norvegicus; test: Compound was evaluated for the measurement of Cerebral blood flow in visual cortex of Rats (normocapnia); format: functional
Rattus norvegicus [7] = species on record: Rattus norvegicus; test: Compound was evaluated for the measurement of Cerebral blood flow in frontal cortex of Rats (normocapnia); format: functional
Rattus norvegicus [8] = species on record: Rattus norvegicus; test: Compound was evaluated for the measurement of Cerebral blood flow in hippocampus cortex of Rats (hypercapnia); format: functional
Rattus norvegicus [9] = species on record: Rattus norvegicus; test: Compound was evaluated for the measurement of Cerebral blood flow in medial geniculate body of Rats (hypercapnia); format: functional
Rattus norvegicus [10] = species on record: Rattus norvegicus; test: Compound was evaluated for the measurement of Cerebral blood flow in sensorimotor cortex of Rats (hypercapnia); format: functional, Brain
Rattus norvegicus [11] = species on record: Rattus norvegicus; test: Compound was evaluated for the measurement of Cerebral blood flow in caudoputamen of Rats ((hypercapnia); format: functional, Brain
Rattus norvegicus [12] = species on record: Rattus norvegicus; test: Compound was evaluated for the measurement of Cerebral blood flow in lateral geniculate body of Rats (normocapnia); format: functional
Rattus norvegicus [13] = species on record: Rattus norvegicus; test: Compound was evaluated for the measurement of Cerebral blood flow in globus pallidus of Rats (normocapnia); format: functional
Rattus norvegicus [14] = species on record: Rattus norvegicus; test: Compound was evaluated for the measurement of Cerebral blood flow in piriform cortex of Rats (hypercapnia); format: functional
Rattus norvegicus [15] = species on record: Rattus norvegicus; test: Compound was evaluated for the measurement of Cerebral blood flow in lateral geniculate body of Rats (hypercapnia); format: functional
Rattus norvegicus [16] = species on record: Rattus norvegicus; test: Compound was evaluated for the measurement of Cerebral blood flow in superior coliculus of Rats (hypercapnia); format: functional, Brain
Rattus norvegicus [17] = species on record: Rattus norvegicus; test: Compound was evaluated for the measurement of Cerebral blood flow in amygdala of Rats (hypercapnia); format: functional
Rattus norvegicus [18] = species on record: Rattus norvegicus; test: Compound was evaluated for the measurement of Cerebral blood flow in frontal cortex of Rats (hypercapnia); format: functional
Rattus norvegicus [19] = species on record: Rattus norvegicus; test: Compound was evaluated for the measurement of Cerebral blood flow in parietal cortex of Rats (hypercapnia); format: functional
Rattus norvegicus [20] = species on record: Rattus norvegicus; test: Compound was evaluated for the measurement of Cerebral blood flow in sensorimotor cortex of Rats (normocapnia); format: functional, Brain
Rattus norvegicus [21] = species on record: Rattus norvegicus; test: Compound was evaluated for the measurement of Cerebral blood flow in nucleus ruber of Rats (normocapnia); format: functional, Brain
Rattus norvegicus [22] = species on record: Rattus norvegicus; test: Compound was evaluated for the measurement of Cerebral blood flow in visual cortex of Rats (hypercapnia); format: functional
Rattus norvegicus [23] = species on record: Rattus norvegicus; test: Compound was evaluated for the measurement of Cerebral blood flow in nucleus accumbens of Rats (hypercapnia); format: functional, Brain
Rattus norvegicus [24] = species on record: Rattus norvegicus; test: Compound was evaluated for the measurement of Cerebral blood flow in caudoputamen of Rats (normocapnia); format: functional, Brain
Rattus norvegicus [25] = species on record: Rattus norvegicus; test: Compound was evaluated for the measurement of Cerebral blood flow in inferior coliculus of Rats (normocapnia); format: functional, Brain
Rattus norvegicus [26] = species on record: Rattus norvegicus; test: Compound was evaluated for the measurement of Cerebral blood flow in substantia nigra of Rats (normocapnia); format: functional
Rattus norvegicus [27] = species on record: Rattus norvegicus; test: Compound was evaluated for the measurement of Cerebral blood flow in habenula of Rats (hypercapnia); format: functional
Rattus norvegicus [28] = species on record: Rattus norvegicus; test: Compound was evaluated for the measurement of Cerebral blood flow in thalamus of Rats (normocapnia); format: functional
Rattus norvegicus [29] = species on record: Rattus norvegicus; test: Compound was evaluated for the measurement of Cerebral blood flow in cerebellum of Rats (normocapnia); format: functional
Rattus norvegicus [30] = species on record: Rattus norvegicus; test: Compound was evaluated for the measurement of Cerebral blood flow in nucleus accumbens of Rats (normocapnia); format: functional, Brain
Rattus norvegicus [31] = species on record: Rattus norvegicus; test: Compound was evaluated for the measurement of Cerebral blood flow in medial geniculate body of Rats (normocapnia); format: functional
Rattus norvegicus [32] = species on record: Rattus norvegicus; test: Compound was evaluated for the measurement of Cerebral blood flow in habenula of Rats (normocapnia); format: functional
Rattus norvegicus [33] = species on record: Rattus norvegicus; test: Compound was evaluated for the measurement of Cerebral blood flow in auditory cortex of Rats (hypercapnia); format: functional
Rattus norvegicus [34] = species on record: Rattus norvegicus; test: Compound was evaluated for the measurement of Cerebral blood flow in auditory cortex of Rats (normocapnia); format: functional
Rattus norvegicus [35] = species on record: Rattus norvegicus; test: Compound was evaluated for the measurement of Cerebral blood flow in cingulate cortex of Rats (normocapnia); format: functional, Brain
Rattus norvegicus [36] = species on record: Rattus norvegicus; test: Compound was evaluated for the measurement of Cerebral blood flow in amygdala of Rats (normocapnia); format: functional
Rattus norvegicus [37] = species on record: Rattus norvegicus; test: Compound was evaluated for the measurement of Cerebral blood flow in inferior coliculus of Rats (hypercapnia); format: functional, Brain
Rattus norvegicus [38] = species on record: Rattus norvegicus; test: Compound was evaluated for the measurement of Cerebral blood flow in septal nucleus of Rats (hypercapnia); format: functional, Brain
Rattus norvegicus [39] = species on record: Rattus norvegicus; test: Compound was evaluated for the measurement of Cerebral blood flow in hypothalamus of Rats (normocapnia); format: functional
Rattus norvegicus [40] = species on record: Rattus norvegicus; test: Compound was evaluated for the measurement of Cerebral blood flow in substantia nigra of Rats (hypercapnia); format: functional
Rattus norvegicus [41] = species on record: Rattus norvegicus; test: Compound was evaluated for the measurement of Cerebral blood flow in superior coliculus of Rats (normocapnia); format: functional, Brain
Rattus norvegicus [42] = species on record: Rattus norvegicus; test: Compound was evaluated for the measurement of Cerebral blood flow in thalamus of Rats (hypercapnia); format: functional
Rattus norvegicus [43] = species on record: Rattus norvegicus; test: Compound was evaluated for the measurement of Cerebral blood flow in cerebellum of Rats (hypercapnia); format: functional
Rattus norvegicus [44] = species on record: Rattus norvegicus; test: Compound was evaluated for the measurement of Cerebral blood flow in hippocampus cortex of Rats (normocapnia); format: functional
Rattus norvegicus [45] = species on record: Rattus norvegicus; test: Compound was evaluated for the measurement of Cerebral blood flow in piriform cortex of Rats (normocapnia); format: functional
Rattus norvegicus [46] = species on record: Rattus norvegicus; test: Compound was evaluated for the measurement of Cerebral blood flow in hypothalamus of Rats (hypercapnia); format: functional

Cc1c(I)c(=O)n(-c2ccccc2)n1C [IODOANTIPYRINE]
Blood flow (Rattus norvegicus [1]): 3.49 100ml g-1 min-1 | Blood flow (Rattus norvegicus [2]): 3.9 100ml g-1 min-1 | Blood flow (Rattus norvegicus [3]): 2.61 100ml g-1 min-1 | Blood flow (Rattus norvegicus [4]): 0.85 100ml g-1 min-1 | Blood flow (Rattus norvegicus [5]): 1.89 100ml g-1 min-1 | Blood flow (Rattus norvegicus [6]): 1.52 100ml g-1 min-1 | Blood flow (Rattus norvegicus [7]): 2.03 100ml g-1 min-1 | Blood flow (Rattus norvegicus [8]): 2.84 100ml g-1 min-1 | Blood flow (Rattus norvegicus [9]): 5.18 100ml g-1 min-1 | Blood flow (Rattus norvegicus [10]): 5.75 100ml g-1 min-1 | Blood flow (Rattus norvegicus [11]): 3.77 100ml g-1 min-1 | Blood flow (Rattus norvegicus [12]): 1.4 100ml g-1 min-1 | Blood flow (Rattus norvegicus [13]): 0.66 100ml g-1 min-1 | Blood flow (Rattus norvegicus [14]): 3.11 100ml g-1 min-1 | Blood flow (Rattus norvegicus [15]): 3.97 100ml g-1 min-1 | Blood flow (Rattus norvegicus [16]): 3.78 100ml g-1 min-1 | Blood flow (Rattus norvegicus [17]): 3.09 100ml g-1 min-1 | Blood flow (Rattus norvegicus [18]): 4.67 100ml g-1 min-1 | Blood flow (Rattus norvegicus [19]): 5.5 100ml g-1 min-1 | Blood flow (Rattus norvegicus [20]): 1.98 100ml g-1 min-1 | Blood flow (Rattus norvegicus [21]): 1.45 100ml g-1 min-1 | Blood flow (Rattus norvegicus [22]): 4.08 100ml g-1 min-1 | Blood flow (Rattus norvegicus [23]): 4.18 100ml g-1 min-1 | Blood flow (Rattus norvegicus [24]): 1.41 100ml g-1 min-1 | Blood flow (Rattus norvegicus [25]): 1.99 100ml g-1 min-1 | Blood flow (Rattus norvegicus [26]): 1.01 100ml g-1 min-1 | Blood flow (Rattus norvegicus [27]): 5.23 100ml g-1 min-1 | Blood flow (Rattus norvegicus [28]): 1.63 100ml g-1 min-1 | Blood flow (Rattus norvegicus [29]): 0.82 100ml g-1 min-1 | Blood flow (Rattus norvegicus [30]): 1.5 100ml g-1 min-1 | Blood flow (Rattus norvegicus [31]): 1.82 100ml g-1 min-1 | Blood flow (Rattus norvegicus [32]): 1.64 100ml g-1 min-1 | Blood flow (Rattus norvegicus [33]): 5.79 100ml g-1 min-1 | Blood flow (Rattus norvegicus [34]): 3.12 100ml g-1 min-1 | Blood flow (Rattus norvegicus [35]): 1.33 100ml g-1 min-1 | Blood flow (Rattus norvegicus [36]): 1.06 100ml g-1 min-1 | Blood flow (Rattus norvegicus [37]): 4.76 100ml g-1 min-1 | Blood flow (Rattus norvegicus [38]): 3.21 100ml g-1 min-1 | Blood flow (Rattus norvegicus [39]): 1.05 100ml g-1 min-1 | Blood flow (Rattus norvegicus [40]): 3.21 100ml g-1 min-1 | Blood flow (Rattus norvegicus [41]): 1.48 100ml g-1 min-1 | Blood flow (Rattus norvegicus [42]): 4.77 100ml g-1 min-1 | Blood flow (Rattus norvegicus [43]): 2.7 100ml g-1 min-1 | Blood flow (Rattus norvegicus [44]): 0.87 100ml g-1 min-1 | Blood flow (Rattus norvegicus [45]): 1.12 100ml g-1 min-1 | Blood flow (Rattus norvegicus [46]): 3.14 100ml g-1 min-1

Cc1c(C(C)C)c(=O)n(-c2ccccc2)n1C [PROPYPHENAZONE]
Blood flow (Rattus norvegicus [1]): 4.91 100ml g-1 min-1 | Blood flow (Rattus norvegicus [2]): 3.45 100ml g-1 min-1 | Blood flow (Rattus norvegicus [3]): 2.85 100ml g-1 min-1 | Blood flow (Rattus norvegicus [4]): 0.91 100ml g-1 min-1 | Blood flow (Rattus norvegicus [5]): 1.89 100ml g-1 min-1 | Blood flow (Rattus norvegicus [6]): 1.3 100ml g-1 min-1 | Blood flow (Rattus norvegicus [7]): 2.26 100ml g-1 min-1 | Blood flow (Rattus norvegicus [8]): 2.77 100ml g-1 min-1 | Blood flow (Rattus norvegicus [9]): 6.94 100ml g-1 min-1 | Blood flow (Rattus norvegicus [10]): 7.24 100ml g-1 min-1 | Blood flow (Rattus norvegicus [11]): 4.18 100ml g-1 min-1 | Blood flow (Rattus norvegicus [12]): 1.45 100ml g-1 min-1 | Blood flow (Rattus norvegicus [13]): 0.73 100ml g-1 min-1 | Blood flow (Rattus norvegicus [14]): 3.56 100ml g-1 min-1 | Blood flow (Rattus norvegicus [15]): 5.46 100ml g-1 min-1 | Blood flow (Rattus norvegicus [16]): 4.66 100ml g-1 min-1 | Blood flow (Rattus norvegicus [17]): 3.65 100ml g-1 min-1 | Blood flow (Rattus norvegicus [18]): 5.34 100ml g-1 min-1 | Blood flow (Rattus norvegicus [19]): 6.95 100ml g-1 min-1 | Blood flow (Rattus norvegicus [20]): 1.91 100ml g-1 min-1 | Blood flow (Rattus norvegicus [21]): 1.36 100ml g-1 min-1 | Blood flow (Rattus norvegicus [22]): 4.97 100ml g-1 min-1 | Blood flow (Rattus norvegicus [23]): 5.49 100ml g-1 min-1 | Blood flow (Rattus norvegicus [24]): 1.35 100ml g-1 min-1 | Blood flow (Rattus norvegicus [25]): 1.99 100ml g-1 min-1 | Blood flow (Rattus norvegicus [26]): 1 100ml g-1 min-1 | Blood flow (Rattus norvegicus [27]): 5.29 100ml g-1 min-1 | Blood flow (Rattus norvegicus [28]): 1.73 100ml g-1 min-1 | Blood flow (Rattus norvegicus [29]): 0.83 100ml g-1 min-1 | Blood flow (Rattus norvegicus [30]): 1.45 100ml g-1 min-1 | Blood flow (Rattus norvegicus [31]): 2.18 100ml g-1 min-1 | Blood flow (Rattus norvegicus [32]): 1.43 100ml g-1 min-1 | Blood flow (Rattus norvegicus [33]): 5.66 100ml g-1 min-1 | Blood flow (Rattus norvegicus [34]): 2.36 100ml g-1 min-1 | Blood flow (Rattus norvegicus [35]): 1.34 100ml g-1 min-1 | Blood flow (Rattus norvegicus [36]): 0.95 100ml g-1 min-1 | Blood flow (Rattus norvegicus [37]): 5.3 100ml g-1 min-1 | Blood flow (Rattus norvegicus [38]): 3.34 100ml g-1 min-1 | Blood flow (Rattus norvegicus [39]): 0.97 100ml g-1 min-1 | Blood flow (Rattus norvegicus [40]): 3.9 100ml g-1 min-1 | Blood flow (Rattus norvegicus [41]): 1.49 100ml g-1 min-1 | Blood flow (Rattus norvegicus [42]): 6.84 100ml g-1 min-1 | Blood flow (Rattus norvegicus [43]): 1.98 100ml g-1 min-1 | Blood flow (Rattus norvegicus [44]): 0.87 100ml g-1 min-1 | Blood flow (Rattus norvegicus [45]): 1.05 100ml g-1 min-1 | Blood flow (Rattus norvegicus [46]): 3.63 100ml g-1 min-1
